Read-outs that look alike come from different tables or passages of the source.

The target in data set [1] is T1, Human tyrosinase (Homo sapiens, UniProt P14679).
T1 construct: Normal human melanocytes (originating from abdominal plasty) are sown in a 24-well plate; endogenous in cells; host or cells: normal human melanocytes from abdominal plasty; donors of light, brown and black phototype
T1 sequence (P14679 19-529): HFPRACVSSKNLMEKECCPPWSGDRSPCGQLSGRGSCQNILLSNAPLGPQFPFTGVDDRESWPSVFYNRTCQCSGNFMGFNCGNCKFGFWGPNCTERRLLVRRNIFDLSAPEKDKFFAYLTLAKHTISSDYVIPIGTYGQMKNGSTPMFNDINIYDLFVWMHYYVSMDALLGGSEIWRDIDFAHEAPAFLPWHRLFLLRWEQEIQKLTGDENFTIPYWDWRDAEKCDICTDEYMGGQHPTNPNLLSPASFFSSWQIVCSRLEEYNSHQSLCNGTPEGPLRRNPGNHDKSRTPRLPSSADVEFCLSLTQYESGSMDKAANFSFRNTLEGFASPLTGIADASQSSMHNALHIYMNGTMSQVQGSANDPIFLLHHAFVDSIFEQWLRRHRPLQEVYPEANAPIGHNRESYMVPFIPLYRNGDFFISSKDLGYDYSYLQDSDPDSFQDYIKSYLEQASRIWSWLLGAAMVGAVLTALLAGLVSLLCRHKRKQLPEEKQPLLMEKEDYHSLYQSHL
Briefly: Inhibition of human tyrosinase in a monolayer after 24 h application of the actives on normal human melanocytes (MBTH/L-Dopa, OD 490 nm/protein). Type of data set: cell-based. The note with it: for inhibition at 1000 µM: 10^-3 M; for Inhibition (%): model of Example 15. The protocol:
Normal human melanocytes (originating from abdominal plasty) are sown in a 24-well plate at the rate of 80,000 cells per well. They are cultivated up to confluence and the actives are applied for 24 hours in the culture media. After 24 hours, the media are removed and the melanocytes are picked up by mechanical action. An extraction is made by heat shock and the supernatants are then recovered and then incubated with MBTH (Sigma) and L-Dopa (Sigma).
The compound obtained in Example 9b was tested on melanocytes originating from various donors but of light phototypes according to the method described in Example 15. […] Table 6 : Inhibition of tyrosinase by compound 9b on 4 different donors.
The compound obtained in Example 9b is tested on cultures of melanocytes originating from 2 donors of brown phototypes and from one donor of negroid phototype. The method applied is that described in Example 15.
(§1) A study is made with molecules known in the literature for their depigmenting activity. These molecules are applied to the model described in Example 15 so as to compare their efficiency with respect to the aurones described above.

For data set [2], the system named is tyrosinase from mushroom. Briefly: In vitro test of the inhibition of isolated tyrosinase (L-DOPA to dopachrome, OD 490 nm). In kind it is biochemical. The note with it: 490 nm. The source says:
Tyrosinase catalyses the formation of L-dopaquinone, and then dopachrome, from L-Dopa. Dopachrome is a colored compound which is quantifiable by visible spectrophotometry at 490 nm. The use of an active which is capable of modifying the enzymatic activity manifests itself by a variation in the optical density at 490nm.
The ratio of the rates of formation of the dopachrome enables the activations or the inhibitions obtained with the various molecules tested to de determined precisely.
The sample to be tested is incubated in the presence of tyrosinase from mushroom (Sigma) for 5 minutes under agitation. L-DOPA (Sigma), substrate of the tyrosinase, is incubated for 10 minutes in the dark in the presence or the absence of the molecules to be tested. The calculation of the percentage inhibition is made by comparing the OD of the test to the OD of the negative control without molecule.
Within the context of this in vitro test, the aurone derivatives were tested at final concentrations of 10^-4M and 10^-5M.

Data set [3] has as its target T1, Human tyrosinase. Briefly: In vitro test of the inhibition of human tyrosinase from melanocyte extract (L-Dopa/MBTH, OD 490 nm). The note with it: isolated human tyrosinase, read-out: Inhibition of human tyrosinase, percentage inhibition. In kind it is biochemical. The protocol: Human tyrosinase obtained from melanocyte extracts originating from healthy donors catalyses the formation of L-Dopaquinone from L-Dopa. L-dopaquinone can be quantified by visible spectrophotometry at 490 nm by virtue of a chromogen : 3-methyl-2-benzothiazolinone hydrazone (MBTH).
The melanocyte extract is obtained after lysis of the cell membranes of the normal human melanocytes which lysis is carried out by a heat shock. The supernatant is recovered and then incubated with MBTH (Sigma) and L-Dopa (Sigma).

Data set [4] relates to normal human melanocytes. Briefly: Cytotoxicity by PNPP determination (percentage viability). As to conditions: 24 hours at 37°C, with respect to non-treated wells. In kind it is cell-based. The protocol: The cytotoxicity of the actives is studied on normal human melanocytes in a 24-well plate by a determination with PNPP (P-nitrophenyl phosphate), a substance which is converted into p-nitrophenol by the intracellular acid phosphatases of viable cells.
The absorbance of p-nitrophenol at 405 nm is directly proportional to the number of viable cells.
The actives are tested at 2 different concentrations (10^-4 M and 10^-5 M) and are added to the culture medium and are incubated at 37°C for 24 hours. The determination with PNPP is carried out on a cell mat and the results are expressed as a percentage viability with respect to the negative control (non-treated wells). The results obtained are summarized in Table 9 below : Tableau 9 : Percentages viability obtained for the various aurone derivatives on normal human melanocytes (the molecules were tested at 2 concentrations 10^-4 and 10^-5 M.

The subject of data set [5] is melanocytes.
From the text: as §1

As for `O=C1/C(=C/c2ccc(O)cc2)Oc2cc(O)cc(O)c21` [Example 9b, (Z)-4,6-Dihydroxy-2-(4'-hydroxybenzylidene)benzofuran-3(2H)-one], the “Inhibition of human tyrosinase after application on normal human melanocytes, percentage inhibition” value was found to be 75.31 ± 8.51% in data set [1] (10^-4M, 24 hours) and 35.23 ± 2.34% in data set [1] (10^-5M, 24 hours). Further, the inhibition at 100 µM in data set [1] (10^-4M, 24 hours, read-out: Inhibition of human tyrosinase after application on normal human melanocytes, percentage inhibition) stood at 75.3%; in data set [1] (Donor 1 (light phototype), 10^-4 M, read-out: Inhibition of tyrosinase), 37.8%; in data set [1] (Donor 2 (light phototype), 10^-4 M, read-out: Inhibition of tyrosinase) it was 43%; in data set [1] (Donor 3 (light phototype), 10^-4 M, read-out: Inhibition of tyrosinase), 63.4%; in data set [1] (Donor A, brown phototype, 10^-4 M, read-out: Inhibitions of tyrosinase), 45%; in data set [1] (Donor B, brown phototype, 10^-4 M, read-out: Inhibitions of tyrosinase), 67%. The inhibition at 100 µM in data set [1] (Donor S (light phototype), 10^-4 M, read-out: Inhibition of tyrosinase) was found to be 75.3%; in data set [1] (Donor, 10^-4 M, read-out: Inhibition), 65.8%; in data set [3] (10^-4M), 18 ± 1.6%. Besides, the inhibition at 10 µM in data set [1] (10^-5M, 24 hours, read-out: Inhibition of human tyrosinase after application on normal human melanocytes, percentage inhibition) is 35.2%; in data set [1] (Donor 1 (light phototype), 10^-5 M, read-out: Inhibition of tyrosinase), -9.77%; in data set [1] (Donor 2 (light phototype), 10^-5 M, read-out: Inhibition of tyrosinase), -7.56%; in data set [1] (Donor 3 (light phototype), 10^-5 M, read-out: Inhibition of tyrosinase), 24.7%; in data set [1] (Donor A, brown phototype, 10^-5 M, read-out: Inhibitions of tyrosinase) it was 25.4%; in data set [1] (Donor B, brown phototype, 10^-5 M, read-out: Inhibitions of tyrosinase), 31.8%. For the same compound, the inhibition at 10 µM was determined as 35.2% in data set [1] (Donor S (light phototype), 10^-5 M, read-out: Inhibition of tyrosinase); 39.5% in data set [1] (Donor, 10^-5 M, read-out: Inhibition); 5.62 ± 2.73% in data set [3] (10^-5M). Also, the inhibition at 1000 µM in data set [1] (Donor A, brown phototype, read-out: Inhibitions of tyrosinase) is 97.5%; in data set [1] (Donor B, brown phototype, read-out: Inhibitions of tyrosinase), 91.8%. Further, the “Inhibition of tyrosinase from mushroom, percentage inhibition” value in data set [2] (10^-4M) is reported as 23.85 ± 2.42%; in data set [2] (10^-5M), 0 ± 1.73%. Moreover, the Percentages viability in data set [4] (10^-4 M) came to 90.31%; in data set [4] (10^-5 M), 128.39%.
For the compound `O=C1O[C@H]([C@@H](O)CO)C(O)=C1OP(=O)(O)O` [VitC PMG, reference compound], the “Inhibition (%)” value was 2.93% in data set [1] (0.03%), 1.55% in data set [1] (0.3%) and -3.49% in data set [1] (3%). In addition, the cytotoxicity result in data set [5] is given as “no”.
